Source: patent publication US11291624B2, “Compositions comprising active botanical ingredients” (CONOPCO, INC., priority 2018, dated 2022)

Test system: MelaKuits reconstructed human pigmented LSE model
Experiment: Inhibition of melanin in a living skin-equivalent (LSE) model
Type: cell-based
Conditions: for Melanin content as % of control: UVB-exposed pigmented LSE, the lower the better
Protocol: Details of the test are as follows:
Materials: • MelaKuits®, a reconstructed human pigmented LSE model, derived from 3D culture of normal human epidermal keratinocytes and melanocytes from Asian donors.
The pigmented LSE model was exposed to UVB (50 mJ/cm^2) for seven consecutive days day at periodic intervals of 24 hours to stimulate the synthesis of melanin. The extracts were applied topically on each LSE model on day 4 and day 6 with an interval of 48 hours for refreshing. For comparison, a blank experiment was carried out in which the LSE was neither exposed to UV radiation nor was any extract applied thereon. A control experiment was also carried out in which the LSE model was exposed to UV radiation, but no other treatment was followed.
On day 8, the appearance of each LSE model was assessed by photographing them. Thereafter, all the models subjected to the test were separated from their respective inserts and placed on a white plastic plate with the stratum corneum side facing up. The luminance (L*) value was read using a spectrophotometer CM700 (Konica-Minolta). For each model, the luminance was measured thrice, and the mean value was calculated for comparison.

SMILES	Melanin content as % of control (2.5 μM)	Melanin content as % of control (75 μM, topical on day 4 and day 6, read on day 8)	Effectiveness in reducing melanin content, in words (positive control, Table 2)
CC1(C)C=Cc2c(ccc3c2OC[C@@H](c2ccc(O)cc2O)C3)O1 [Glabridin]	97.1 % of control		
O=c1cc(CO)occ1O [Kojic acid]		77.4 % of control	most effective ingredient
